Data on nine molecules can be found in patent US8198273B2, “Compounds and methods for kinase modulation, and indications therefor” (Plexxikon Inc., priority 2009, dated 2012).

In general, IC50 refers to the concentration that gives 50% inhibition.

One data set addresses T1, A-Raf (Homo sapiens, UniProt P10398).
T1 sequence (P10398 1-606): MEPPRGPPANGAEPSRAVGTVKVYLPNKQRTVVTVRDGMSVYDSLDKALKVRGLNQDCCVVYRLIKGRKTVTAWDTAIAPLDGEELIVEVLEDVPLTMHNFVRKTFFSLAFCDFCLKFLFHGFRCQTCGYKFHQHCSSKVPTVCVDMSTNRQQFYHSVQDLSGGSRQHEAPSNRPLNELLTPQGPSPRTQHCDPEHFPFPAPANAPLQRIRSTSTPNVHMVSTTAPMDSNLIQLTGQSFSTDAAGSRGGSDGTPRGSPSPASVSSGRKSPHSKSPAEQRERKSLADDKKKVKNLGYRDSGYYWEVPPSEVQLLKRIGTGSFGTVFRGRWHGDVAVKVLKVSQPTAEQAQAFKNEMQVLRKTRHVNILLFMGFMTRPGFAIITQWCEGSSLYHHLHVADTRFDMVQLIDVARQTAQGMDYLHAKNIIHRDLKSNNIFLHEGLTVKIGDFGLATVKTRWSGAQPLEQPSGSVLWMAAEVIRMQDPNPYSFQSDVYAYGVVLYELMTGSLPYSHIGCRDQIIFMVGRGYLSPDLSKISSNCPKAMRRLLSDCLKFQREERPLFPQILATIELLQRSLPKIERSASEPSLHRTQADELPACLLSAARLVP
The experiment in a line: A-Raf biochemical kinase inhibition (AlphaScreen, biotin-MEK1 substrate). The following applies: 100 μM ATP. As to the method: Compounds to be tested are diluted in dimethyl sulfoxide to a concentration of 0.1 mM. These are serially diluted 15 μL into 30 μL of dimethyl sulfoxide seven times in 96 well plates for a total of 8 dilution points, and for each dilution point 1 μL is added to a well of an assay plate. […] The reaction is started with addition of 10 μL of 200 μM ATP (i.e. final 100 μM ATP). […] The plates are incubated for 3 hours at room temperature and read on Envision reader (Perkin Elmer). […] The signal vs. compound concentration is used to determine the IC50.
(In general: In Alpha technology, singlet oxygen from a donor bead excites a nearby acceptor bead.)

In the next data set the target is B-Raf (Homo sapiens, UniProt P15056). The experiment in a line: B-Raf biochemical kinase inhibition (AlphaScreen, biotin-MEK1 substrate). The following applies: 100 μM ATP. The method, boiled down: (§1)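 Serial 1:3 dilutions of compound (0.1 mM DMSO stock, eight points) were added first, then ATP to start the reaction at 100 μM final.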
The target of the next data set is c-Raf-1 (Homo sapiens, UniProt P04049). The experiment in a line: c-Raf-1 biochemical kinase inhibition (AlphaScreen, biotin-MEK1 substrate). The following applies: 100 μM ATP. The method, boiled down: as §1
A short description of data set [1]: Relative solubility by turbidity in aqueous buffers of varying pH. Format: physicochemical. The following applies: for turbidity threshold (L, M, H) 7.4: HEPES pH 7.4; for turbidity threshold (L, M, H) 4.5: SIF pH 4.5; for turbidity threshold (L, M, H) 6.8: SIF pH 6.8; for turbidity threshold (L, M, H) 1.4: buffer pH 1.4 (SGF). The method, boiled down:
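Turbidity endpoint: concentration where optical density at 490, 535 and 650 nm exceeds 0.01, three-wavelength average used. Buffers at pH 1.5, 4.5, 6.8 and 7.4; DMSO serial dilutions of 25 mM stock spiked 1 μL into 99 μL buffer. Low <31.3, moderate 31.3–250, high >250 μM.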

For another data set, the target named is CYP3A4(BFC) (Homo sapiens, UniProt P08684). The data set can be described thus: CYP3A4(BFC) inhibition (fluorescent substrate). Format: in vitro ADME. The following applies: read-out: Cyp IC50 3A4(BFC). The method, boiled down: (§2)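 Compound, from a 100 mM DMSO stock and diluted 1:1 over 10 points in co-factor mix, was incubated at 37° C with enzyme and a known substrate. Decrease in fluorescent product against concentration gave the IC50.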

A further data set has as its target CYP3A4(BQ) (Homo sapiens, UniProt P08684). The experiment in a line: CYP3A4(BQ) inhibition (fluorescent substrate). Format: in vitro ADME. The following applies: read-out: Cyp IC50 3A4(BQ). The method, boiled down: as §2

B-Raf, sequence (P15056 whole entry): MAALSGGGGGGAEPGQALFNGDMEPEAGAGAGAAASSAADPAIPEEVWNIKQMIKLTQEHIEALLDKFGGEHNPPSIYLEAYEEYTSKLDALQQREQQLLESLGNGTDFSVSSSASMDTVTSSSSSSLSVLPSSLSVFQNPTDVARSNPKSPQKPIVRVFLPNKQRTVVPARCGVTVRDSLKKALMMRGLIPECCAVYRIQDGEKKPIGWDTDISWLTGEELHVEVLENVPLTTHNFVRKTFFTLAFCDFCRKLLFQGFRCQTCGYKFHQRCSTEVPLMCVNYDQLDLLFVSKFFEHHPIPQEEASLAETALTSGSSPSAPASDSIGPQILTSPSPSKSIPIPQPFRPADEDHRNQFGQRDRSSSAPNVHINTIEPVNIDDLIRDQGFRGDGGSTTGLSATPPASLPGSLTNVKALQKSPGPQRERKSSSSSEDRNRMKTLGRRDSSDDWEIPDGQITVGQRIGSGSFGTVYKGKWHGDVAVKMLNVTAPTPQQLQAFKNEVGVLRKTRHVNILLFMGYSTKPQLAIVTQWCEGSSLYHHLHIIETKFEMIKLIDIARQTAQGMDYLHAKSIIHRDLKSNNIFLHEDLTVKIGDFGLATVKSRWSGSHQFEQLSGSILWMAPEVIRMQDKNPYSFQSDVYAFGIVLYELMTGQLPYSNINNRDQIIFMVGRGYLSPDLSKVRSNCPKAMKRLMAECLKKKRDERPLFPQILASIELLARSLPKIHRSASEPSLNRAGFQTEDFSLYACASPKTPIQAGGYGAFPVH
CYP3A4(BFC), sequence (P08684 whole entry): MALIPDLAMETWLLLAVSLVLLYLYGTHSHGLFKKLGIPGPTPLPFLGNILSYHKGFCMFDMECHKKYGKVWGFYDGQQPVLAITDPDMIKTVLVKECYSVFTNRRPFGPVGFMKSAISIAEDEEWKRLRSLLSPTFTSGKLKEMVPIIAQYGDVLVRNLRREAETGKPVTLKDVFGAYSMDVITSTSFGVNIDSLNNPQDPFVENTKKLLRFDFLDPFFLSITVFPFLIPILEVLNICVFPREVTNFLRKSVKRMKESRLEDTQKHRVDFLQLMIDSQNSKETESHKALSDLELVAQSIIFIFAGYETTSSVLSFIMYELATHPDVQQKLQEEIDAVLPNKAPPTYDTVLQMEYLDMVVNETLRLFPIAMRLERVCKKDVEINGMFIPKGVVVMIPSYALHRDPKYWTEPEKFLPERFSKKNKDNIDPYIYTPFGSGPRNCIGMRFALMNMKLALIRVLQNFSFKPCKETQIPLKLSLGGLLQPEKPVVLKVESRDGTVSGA
CYP3A4(BQ), sequence (P08684 whole entry): as above
c-Raf-1, sequence (P04049 whole entry): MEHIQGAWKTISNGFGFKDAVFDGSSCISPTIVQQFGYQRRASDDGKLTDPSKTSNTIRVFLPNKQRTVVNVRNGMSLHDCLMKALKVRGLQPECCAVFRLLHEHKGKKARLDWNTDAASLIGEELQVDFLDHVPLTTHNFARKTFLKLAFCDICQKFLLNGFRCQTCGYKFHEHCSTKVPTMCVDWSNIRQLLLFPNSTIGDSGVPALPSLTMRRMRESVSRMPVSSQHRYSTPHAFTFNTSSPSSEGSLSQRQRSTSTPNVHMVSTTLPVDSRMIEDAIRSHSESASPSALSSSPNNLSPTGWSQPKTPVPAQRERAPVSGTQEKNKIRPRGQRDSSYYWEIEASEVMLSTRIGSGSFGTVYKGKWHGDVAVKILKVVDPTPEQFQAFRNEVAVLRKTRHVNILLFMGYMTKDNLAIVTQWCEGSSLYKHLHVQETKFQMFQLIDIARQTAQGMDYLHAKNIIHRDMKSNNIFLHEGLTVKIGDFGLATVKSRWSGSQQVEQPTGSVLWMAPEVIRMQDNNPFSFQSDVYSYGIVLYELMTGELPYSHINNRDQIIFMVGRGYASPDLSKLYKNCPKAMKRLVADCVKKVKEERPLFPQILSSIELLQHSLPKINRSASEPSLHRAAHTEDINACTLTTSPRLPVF

On to `O=C(c1c(F)ccc(NS(=O)(=O)c2cc(F)ccc2F)c1F)c1c[nH]c2ncc(Cl)cc12` [P-2002, N-[3-(5-Chloro-1H-pyrrolo[2,3-b]pyridine-3-carbonyl)-2,4-difluoro-phenyl]-2,5-difluoro-benzenesulfonamide], for which the IC50 against A-Raf is less than 10 nM; against B-Raf, less than 10 nM; against c-Raf-1, less than 10 nM; on CYP3A4(BFC) it was greater than 10 µM; on CYP3A4(BQ) it was greater than 10 µM. Also, the “turbidity threshold (L, M, H) 7.4” value in data set [1] is “M (moderate solubility if the threshold concentration is 31.3 μM to 250 μM)”. Moreover, the “turbidity threshold (L, M, H) 4.5” value in data set [1] was “L (low solubility if the threshold concentration is <31.3 04)”. For the same molecule, the “turbidity threshold (L, M, H) 6.8” value in data set [1] is “M (moderate solubility if the threshold concentration is 31.3 μM to 250 μM)”. For the same molecule, the “turbidity threshold (L, M, H) 1.4” value in data set [1] is “L (low solubility if the threshold concentration is <31.3 04)”.
Turning to `COc1cnc2[nH]cc(C(=O)c3c(F)ccc(NS(=O)(=O)c4cc(F)ccc4F)c3F)c2c1` [P-2010, N-[2,4-Difluoro-3-(5-methoxy-1H-pyrrolo[2,3-b]pyridine-3-carbonyl)-phenyl]-2,5-difluoro-benzenesulfonamide], the concentration for half-maximal inhibition (IC50) was less than 10 nM against A-Raf; less than 100 nM at B-Raf; less than 10 nM against c-Raf-1; greater than 10 µM at CYP3A4(BFC); greater than 10 µM at CYP3A4(BQ). For the same molecule, in data set [1], the “turbidity threshold (L, M, H) 7.4” value was “M (moderate solubility if the threshold concentration is 31.3 μM to 250 μM)”. Also, in data set [1], the “turbidity threshold (L, M, H) 4.5” value is “L (low solubility if the threshold concentration is <31.3 04)”. Moreover, the “turbidity threshold (L, M, H) 6.8” value in data set [1] is recorded as “M (moderate solubility if the threshold concentration is 31.3 μM to 250 μM)”. In addition, the “turbidity threshold (L, M, H) 1.4” value in data set [1] is listed as “L (low solubility if the threshold concentration is <31.3 04)”.
For the molecule `N#Cc1ccnc2[nH]cc(C(=O)c3c(F)ccc(NS(=O)(=O)c4ccccc4F)c3F)c12` [P-2020, N-[3-(4-Cyano-1H-pyrrolo[2,3-b]pyridine-3-carbonyl)-2,4-difluoro-phenyl]-2-fluoro-benzenesulfonamide], the IC50 at A-Raf is less than 10 nM; on B-Raf, less than 10 nM; against c-Raf-1, less than 10 nM; at CYP3A4(BFC) it was greater than 10 µM; on CYP3A4(BQ), greater than 10 µM. Besides, the “turbidity threshold (L, M, H) 7.4” value in data set [1] is on record as “M (moderate solubility if the threshold concentration is 31.3 μM to 250 μM)”. For the same molecule, in data set [1], the “turbidity threshold (L, M, H) 4.5” value is “M (moderate solubility if the threshold concentration is 31.3 μM to 250 μM)”. Moreover, the “turbidity threshold (L, M, H) 6.8” value in data set [1] was “M (moderate solubility if the threshold concentration is 31.3 μM to 250 μM)”. Also, in data set [1], the “turbidity threshold (L, M, H) 1.4” value is given as “M (moderate solubility if the threshold concentration is 31.3 μM to 250 μM)”.
On to `N#Cc1ccnc2[nH]cc(C(=O)c3c(F)ccc(NS(=O)(=O)c4cccc(F)c4)c3F)c12` [P-2039, N-[3-(4-Cyano-1H-pyrrolo[2,3-b]pyridine-3-carbonyl)-2,4-difluoro-phenyl]-3-fluoro-benzenesulfonamide], for which the IC50 at A-Raf was less than 10 nM; at B-Raf, less than 10 nM; at c-Raf-1, less than 10 nM; on CYP3A4(BFC) it was greater than 10 µM; on CYP3A4(BQ), greater than 10 µM.
Regarding `N#Cc1ccnc2[nH]cc(C(=O)c3c(F)ccc(NS(=O)(=O)c4cccnc4)c3F)c12` [P-2077, Pyridine-3-sulfonic acid [3-(4-cyano-1H-pyrrolo[2,3-b]pyridine-3-carbonyl)-2,4-difluoro-phenyl]-amide], the IC50 against A-Raf is less than 10 nM; against B-Raf, less than 10 nM; against c-Raf-1 it was less than 10 nM; on CYP3A4(BFC) it was 5 to 10 µM; at CYP3A4(BQ) it was 5 to 10 µM.
Turning to `CCCS(=O)(=O)Nc1ccc(F)c(C(=O)c2c[nH]c3ncc(-c4ccc(NS(C)(=O)=O)cc4)cc23)c1F` [P-2165, Propane-1-sulfonic acid {2,4-difluoro-3-[5-(4-methanesulfonylamino-phenyl)-1H-pyrrolo[2,3-b]pyridine-3-carbonyl]-phenyl}-amide], the IC50 at A-Raf is less than 10 nM; at B-Raf it was less than 10 nM; at c-Raf-1, less than 10 nM; at CYP3A4(BFC), greater than 10 µM; at CYP3A4(BQ) it was greater than 10 µM. For the same molecule, in data set [1], the “turbidity threshold (L, M, H) 7.4” value is recorded as “L (low solubility if the threshold concentration is <31.3 04)”. For the same molecule, the “turbidity threshold (L, M, H) 4.5” value in data set [1] is reported as “L (low solubility if the threshold concentration is <31.3 04)”. For the same molecule, the “turbidity threshold (L, M, H) 6.8” value in data set [1] is reported as “L (low solubility if the threshold concentration is <31.3 04)”. The “turbidity threshold (L, M, H) 1.4” value in data set [1] is on record as “L (low solubility if the threshold concentration is <31.3 04)”.
As to `CCCc1ccc(-c2cnc3[nH]cc(C(=O)c4c(F)ccc(NS(=O)(=O)CCC)c4F)c3c2)cn1` [P-2224, Propane-1-sulfonic acid {2,4-difluoro-3-[5-(6-propyl-pyridin-3-yl)-1H-pyrrolo[2,3-b]pyridine-3-carbonyl]-phenyl}-amide], the IC50 on A-Raf is less than 10 nM; against B-Raf it was less than 10 nM; against c-Raf-1 it was less than 10 nM; on CYP3A4(BFC), greater than 10 µM; at CYP3A4(BQ) it was greater than 10 µM.
With `CCCS(=O)(=O)Nc1ccc(F)c(C(=O)c2c[nH]c3ncc(-c4ccc(N5CCCC5)nc4)cc23)c1F` [P-2231, Propane-1-sulfonic acid {2,4-difluoro-3-[5-(6-pyrrolidin-1-yl-pyridin-3-yl)-1H-pyrrolo[2,3-b]pyridine-3-carbonyl]-phenyl}-amide], the IC50 at A-Raf was less than 10 nM; at B-Raf, less than 10 nM; against c-Raf-1, less than 100 nM; at CYP3A4(BFC), greater than 10 µM; on CYP3A4(BQ), greater than 10 µM. In data set [1], the “turbidity threshold (L, M, H) 7.4” value is given as “L (low solubility if the threshold concentration is <31.3 04)”. The “turbidity threshold (L, M, H) 4.5” value in data set [1] was “L (low solubility if the threshold concentration is <31.3 04)”. Further, the “turbidity threshold (L, M, H) 6.8” value in data set [1] was “L (low solubility if the threshold concentration is <31.3 04)”. In addition, in data set [1], the “turbidity threshold (L, M, H) 1.4” value is listed as “L (low solubility if the threshold concentration is <31.3 04)”.
On to `CCCS(=O)(=O)Nc1ccc(F)c(C(=O)c2c[nH]c3ncc(-c4ccc(OCCN5CCCC5)nc4)cc23)c1F` [P-2233, Propane-1-sulfonic acid (2,4-difluoro-3-{5-[6-(2-pyrrolidin-1-yl-ethoxy)-pyridin-3-yl]-1H-pyrrolo[2,3-b]pyridine-3-carbonyl}-phenyl)-amide], for which the IC50 on A-Raf is less than 10 nM; against B-Raf, less than 10 nM; against c-Raf-1, less than 10 nM; at CYP3A4(BFC), greater than 10 µM; on CYP3A4(BQ), greater than 10 µM. For the same molecule, the “turbidity threshold (L, M, H) 7.4” value in data set [1] is “M (moderate solubility if the threshold concentration is 31.3 μM to 250 μM)”. Moreover, the “turbidity threshold (L, M, H) 4.5” value in data set [1] is “M (moderate solubility if the threshold concentration is 31.3 μM to 250 μM)”. Also, in data set [1], the “turbidity threshold (L, M, H) 6.8” value is recorded as “L (low solubility if the threshold concentration is <31.3 04)”. In addition, the “turbidity threshold (L, M, H) 1.4” value in data set [1] was “L (low solubility if the threshold concentration is <31.3 04)”.
